# Experiments:
# [1] = tested on: cardiac arrhythmias (coronary artery occlusion); assay: Coronary artery ligation induced arrhythmias (conscious dogs); type: in vivo, dog (adult mongrel); conditions: for Antiarrhythmic Activity: Number of dogs in which drug is considered active/number treated: active = normal sinus rhythm within 2 hours
# Method: Cardiac arrhythmias in dogs are induced by surgically restricting blood flow in a coronary artery. The test compound is administered intravenously and the heart rate and number and percentage of ectopic beats recorded at 15 minute intervals.
# Adult mongrel dogs which are in the conscious state were used for the test and cardiac arrhythmias were induced by prior (22-24 hr) surgical preparation in which blood flow through a coronary artery was occluded by use of a constrictor device as reported by Smith et al, 1973. A Grass Model 79 Polygraph was used for recording the electrocardiogram (Grass 7P4 Preamplifier).
# The test compound was administered by infusion (Harvard Model 942 Infusion Pump) into a saphenous vein to the test group of dogs at a rate of 0.5 mg/kg/min. Concentration of compound was adjusted according to the weight of the dog to allow a volume of infusion of 0.5 ml/min. Following the administration of the test compound, the heart rate, number of ectopic beats (ectopic beats/HR×1000) were recorded at 15 min intervals. The compound was considered active if it abolished the ectopic ventricular frequency and caused a return to normal sinus rhythm within 2 hours of administration. Cardiac arrhythmias produced by modification of method of Harris, 1950, Circulation 1, 1318, as reported by Smith et al, 1973, Pharmacologist 15, 192.
# [2] = tested on: morphine-induced Straub Tail; assay: Morphine-induced Straub Tail in Mice Test (muscle relaxant); type: in vivo; conditions: scored 30 min after test compound; for ED50: Mus musculus, 0.5 h, IP, morphine sulfate 60 mg/kg s.c. 15 min later, read-out: Straub Tail Inhibition ED50
# Method: Administration of morphine sulfate to a mouse causes the tail to become elevated perpendicular to the body. […] The test procedure relied on to indicate positive muscle relaxant activity is the morphine-induced Straub Tail in Mice Test described by G. D. Novak in DRUG DEVELOPMENT RESEARCH (1982) 2: 383-386, except 8 animals per group were used per test rather than 10. The test is summarized as follows: The test drug, reference drug, and control articles to be administered are prepared in saline, 0.5% aqueous methylcellulose suspension or other, depending on solubility, in such concentration that the volume administered is 10 ml/kg. The initial screening dose of the test drug is usually 100 mg/kg. Groups of 8 mice are given an IP dose of a compound or vehicle prepared as described above. After 15 min, mice are administered morphine sulfate, 60 mg/kg in saline, subcutaneously. Fifteen minutes after administration of morphine (i.e., 30 min after test compound administration), mice were scored for presence of Straub Tail defined as an elevation of the tail at least 90 degrees from the horizontal. An ED50 value may be determined from at least three logarithmically spaced doses by the method of Litchfield and Wilcoxon (1949), J. PHARMACOL. EXP. THER. 96: 99-113.
compound,measurement,setting,value
"CCN1CCC(Nc2nc3ccccc3n2CC)C1 (stereo not shown) [Compound 1, 1-Ethyl-N-(1-ethyl-3-pyrrolidinyl)-1H-benzimidazol-2-amine]",Antiarrhythmic Activity: Number of dogs in which drug is considered active/number treated,[1]; dose 5 mg/kg IV,1/2
same,ED50,[2],36 mg/kg
"CCn1c(NC2CCN(C)C2)nc2ccccc21 (stereo not shown) [Compound 2, 1-Ethyl-N-(1-methyl-3-pyrrolidinyl)-1H-benzimidazol-2-amine]",Antiarrhythmic Activity,[1]; dose 7 mg/kg IV,partially active (Reduces ectopic beats from 50-99%)
"CN1CCC(Nc2nc3ccccc3n2Cc2ccccc2)C1 (stereo not shown) [Compound 3, N-(1-Methyl-3-pyrrolidinyl)-1-(phenylmethyl)-1H-benzimidazol-2-amine]",Antiarrhythmic Activity: Number of dogs in which drug is considered active/number treated,[1]; dose 7 mg/kg IV,7/8
same,ED50,[2],21 mg/kg
"CN1CCC(Nc2nc3ccccc3n2Cc2ccccc2)CC1 [Compound 4, N-(1-Methyl-4-piperidinyl)-1-(phenylmethyl)-1H-benzimidazol-2-amine]",Antiarrhythmic Activity: Number of dogs in which drug is considered active/number treated,[1]; dose 9 mg/kg IV,2/6
same,Straub Tail Inhibition %,[2]; dose 100 mg/kg IP,-25%

# Reference: patent US5106857A, “N-(1-methyl-3-pyrrolidinyl)-1-(phenylmethyl)-1H-benzimidazol-2-amine and analogs as antiarrhythmic and muscle relaxing agents” (A. H. Robins Company, Incorporated, priority 1991, dated 1992)
